The text below walks through data of publication PMC5591244, “Novel selective, potent naphthyl TRPM8 antagonists identified through a combined ligand- and structure-based virtual screening approach” (Scientific Reports, 2017).

Common to all, as to assay type: cell-based
Experiment [1] addresses T1, TRPM8 (Homo sapiens, UniProt Q7Z2W7).
T1 construct: expressed in transfected cells
The experiment in a line: Calcium mobilization assay (HTS and dose-response) on HEK-293/hTRPM8 cells. The settings on record: for IC50: calcium mobilization. Here is the method: All experiments were performed on HEK-293/hTRPM8 cells stably transfected with the human TRPM8 gene, except for site-directed mutagenesis analysis, which was performed on transient transfectants. In details, HEK-293 cells (ATCC, Manassas, Virginia) were transfected with the pcDNA3/hTRPM8 vector by electroporation (300 Volts, 950 µF) then selected with medium containing 0,8 mg/ml G418 for 10–15 days. Then the stable transfected pool underwent two rounds of limiting dilutions, in eight 96 well plates at a cell density of 1 cell/well, in order to obtain pure clones. The best responder clone was selected based on its response to 1 mM menthol in calcium mobilization experiments. HEK-293/hTRPM8 cells were maintained in EMEM (Minimum Essential Medium Eagle with Earl’s salts Balanced Salt Solution, LONZA) supplemented with 2 mM Ultraglutamine1 (Lonza), 1% Penicillin/Streptomycin (LONZA), 10% of Fetal Bovine Serum (Euroclone) and 0,4 mg/mL G418 (InvivoGen).
(§1) For calcium mobilization assays, cells were seeded at 10,000 cells/well in 384-well plates coated with poly-D-lysine (MATRIX black/clear bottom #4332-CPL, Thermo Scientific, Waltham, MA, USA) in complete medium.Twenty-four hours after seeding, the plates were washed with Tyrode’s buffer with a Bio-Tek-ELx405 Microplate Washer (Merck Millipore; Billerica, MA, USA), and then 10 µl/well of a solution containing the fluorescent Ca^2+ indicator Fluo-4 NW dye was added. Cells were incubated for 1 h at room temperature before test compounds were added at 3X the concentration with respect to the final wanted concentration to be tested with a FLIPR TETRA system (Molecular Devices, Sunnyvale, CA, USA). Calcium mobilization was monitored over a period of 5 min. A second injection of 10 µl/well of a reference agonist (icilin or Cooling agent 10) at 4X concentration in assay buffer was performed using the FLIPR TETRA system. Of note, for selectivity assays, the following agonists were used: 10 μM AITC (allyl isothiocyanate) for TRPA1; 100 nM Capsaicin for TRPV1; and 20 nM GSK1016790A for TRPV4.
After addition of the agonist, the fluorescence signal was recorded over the next 3 min. The bioactivity exerted by the compounds was expressed as a percentage of inhibition. The percentage scale is defined as follows: 100% inhibition was considered as the relative fluorescence units (RFUs) of the value of the MIN controls in the second injection (antagonist Capsazepine at IC100 = 50 µM) and 0% inhibition was considered as the RFU values of the value of the MAX controls in the second injection (Cooling agent 10 at EC80 = 30 µM). Data from four replicates were analyzed using GraphPad PRISM® software (version 5, GraphPad Software Inc.) to calculate the mean and standard error of the mean, to create sigmoidal concentration-response curves and to calculate IC50 values.

The target of the next experiment is T2, TRPM8 I746A (Homo sapiens, UniProt Q7Z2W7, I746A).
T2 construct: expressed in transfected cells; host or cells: HEK-293, transient (Lipofectamine 2000)
Briefly: Calcium mobilization on transiently transfected TRPM8 I746A mutant. The settings on record: icilin at EC80, I746A; read-out: pIC50, inhibition of icilin activation, I746A (converted). The source says: (§2) Single point mutations were introduced in the hTRPM8-coding sequence, and the mutated TRPM8 was cloned as N-terminal c-myc tagged version into the pcDNA3 expression vector. This was done in that way that the single variations could be easily swapped from the myc-tagged expression construct into the non-tagged TRPM8 wild type expression construct.
(§3) The list of the variants is the following: variant 1, t2233g, a2234c (=Y745A); variant 2, a2236g, t2237c (=I746A); variant 3, a2395g, a2396c (=N799A) and variant 4, a2405c (D802A). The cloning project comprised three steps. First of all, a unique XhoI restriction site was inserted by site-directed mutagenesis (SDM) using DNA of the pcDNA3_TRPM8 construct as template. The 0.6 kb DNA fragment between the unique 5′ XhoI (introduced) and 3′ BamHI (already present) restriction sites comprised all positions of the four single point mutations and could be later used for their insertion as well as swapping between myc-tagged and non-tagged TRPM8 versions. In a second step, the c-myc tag sequence was introduced embedded within the TRPM8 coding sequence by PCR primers in two partially overlapping PCRs that were then joined by bridge PCR with the external 5′KpnI and internal 3′EcoRI primers and in the last step the point mutations 1 to 4 were inserted into pcDNA3_c-myc-TRPM8 by exchanging the wild type 5′XhoI-3′BamHI fragment (0.6 kb) with each of the corresponding variation fragment derived from synthetic DNA (provided by GeneArt, ThermoFisher Scientific).The myc-tagged constructs were transiently transfected in HEK-293 cells with Lipofectamine 2000 (Invitrogen) according to the manufacturer’s protocol. The pcDNA vectors containing the wt myc-tagged TRPM8 gene and the empty pcDNA3 (mock) were separately transfected into HEK-293 cells as controls. Cells were transfected and seeded on the same day at 17,500 cells/well in poly-D-lysine-coated 384-well plates (MATRIX #4332-CPL). Twenty-four hours after seeding, the activity of transfected TRPM8 receptors was tested using the calcium mobilization assay as described above. The analysis was performed on the basis of ΔF/F° (normalized MAX-MIN), where ΔF is the MAX between time points 117 and 182 minus the MIN between time points TP114 and TP116, and F° is the basal signal at time point TP0. The obtained data from at least four wells (as replicates) were analyzed with GraphPad PRISM® software (version 5, GraphPad Software Inc.) to calculate the mean and standard error of the mean[58], to create sigmoidal concentration-response curves and to calculate IC50 values.

The next experiment concerns the target T3, TRPM8 N799A (Homo sapiens, UniProt Q7Z2W7, N799A).
T3 construct: expressed in transfected cells; host or cells: HEK-293, transient (Lipofectamine 2000)
The experiment in a line: Calcium mobilization on transiently transfected TRPM8 N799A mutant. The settings on record: Cooling agent 10 at EC80, N799A; read-out: pIC50, inhibition of Cooling agent 10 activation, N799A (converted).
Excerpt: as §2, §3

A further experiment addresses TRPA1 (Homo sapiens, UniProt O75762). The experiment in a line: Selectivity calcium mobilization assay, TRPA1. The settings on record: agonist 10 μM AITC. Here is the method: as §1
Another experiment has as its target TRPV1 (Homo sapiens, UniProt Q8NER1). Briefly: Selectivity calcium mobilization assay, TRPV1. The settings on record: agonist 100 nM Capsaicin. The protocol:
as §1

Experiment [2] addresses T1, TRPM8. Briefly: Schild regression versus icilin. The settings on record: data not shown. The protocol:
Compound 1 was also tested in schild regression experiments[65] and compared with icilin and cooling agent (data not shown) to better characterize its mechanism of action. In these experiments, seven points for dose-response curves with icilin at seven different concentrations were analyzed.

Molecules are shown by their SMILES. “Also recorded” adds a separate entry of the source. Where two headings read alike, the source gives them in different places.

T1 sequence (Q7Z2W7 whole entry): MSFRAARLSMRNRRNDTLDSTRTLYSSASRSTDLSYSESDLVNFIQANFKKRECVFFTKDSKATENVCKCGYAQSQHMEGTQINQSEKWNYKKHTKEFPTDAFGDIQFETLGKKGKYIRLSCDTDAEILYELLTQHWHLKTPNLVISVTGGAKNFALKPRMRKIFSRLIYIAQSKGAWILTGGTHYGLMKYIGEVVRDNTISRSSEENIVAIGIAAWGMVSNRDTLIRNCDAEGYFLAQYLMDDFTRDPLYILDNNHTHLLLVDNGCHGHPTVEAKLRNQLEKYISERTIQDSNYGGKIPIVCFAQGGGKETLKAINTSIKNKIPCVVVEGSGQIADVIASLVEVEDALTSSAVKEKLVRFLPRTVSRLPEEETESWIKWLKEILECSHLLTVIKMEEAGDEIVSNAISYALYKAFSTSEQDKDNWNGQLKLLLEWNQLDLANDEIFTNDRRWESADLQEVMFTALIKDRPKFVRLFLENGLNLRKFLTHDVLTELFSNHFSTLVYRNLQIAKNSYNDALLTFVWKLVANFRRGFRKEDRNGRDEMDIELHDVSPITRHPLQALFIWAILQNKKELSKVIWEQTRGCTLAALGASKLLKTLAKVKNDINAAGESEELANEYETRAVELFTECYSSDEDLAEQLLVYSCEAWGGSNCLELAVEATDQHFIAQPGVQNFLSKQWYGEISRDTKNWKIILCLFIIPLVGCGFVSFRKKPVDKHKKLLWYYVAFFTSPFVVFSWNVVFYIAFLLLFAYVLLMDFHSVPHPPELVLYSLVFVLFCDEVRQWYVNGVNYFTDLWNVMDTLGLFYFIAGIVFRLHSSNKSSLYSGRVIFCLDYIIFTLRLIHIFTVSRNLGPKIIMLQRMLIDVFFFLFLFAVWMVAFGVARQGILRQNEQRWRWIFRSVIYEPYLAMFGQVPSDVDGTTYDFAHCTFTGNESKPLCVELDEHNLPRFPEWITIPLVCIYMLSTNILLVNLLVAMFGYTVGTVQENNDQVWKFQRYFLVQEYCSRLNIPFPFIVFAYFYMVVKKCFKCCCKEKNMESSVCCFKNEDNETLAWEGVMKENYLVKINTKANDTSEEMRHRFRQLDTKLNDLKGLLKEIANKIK
TRPV1, sequence (Q8NER1 whole entry, species assumed): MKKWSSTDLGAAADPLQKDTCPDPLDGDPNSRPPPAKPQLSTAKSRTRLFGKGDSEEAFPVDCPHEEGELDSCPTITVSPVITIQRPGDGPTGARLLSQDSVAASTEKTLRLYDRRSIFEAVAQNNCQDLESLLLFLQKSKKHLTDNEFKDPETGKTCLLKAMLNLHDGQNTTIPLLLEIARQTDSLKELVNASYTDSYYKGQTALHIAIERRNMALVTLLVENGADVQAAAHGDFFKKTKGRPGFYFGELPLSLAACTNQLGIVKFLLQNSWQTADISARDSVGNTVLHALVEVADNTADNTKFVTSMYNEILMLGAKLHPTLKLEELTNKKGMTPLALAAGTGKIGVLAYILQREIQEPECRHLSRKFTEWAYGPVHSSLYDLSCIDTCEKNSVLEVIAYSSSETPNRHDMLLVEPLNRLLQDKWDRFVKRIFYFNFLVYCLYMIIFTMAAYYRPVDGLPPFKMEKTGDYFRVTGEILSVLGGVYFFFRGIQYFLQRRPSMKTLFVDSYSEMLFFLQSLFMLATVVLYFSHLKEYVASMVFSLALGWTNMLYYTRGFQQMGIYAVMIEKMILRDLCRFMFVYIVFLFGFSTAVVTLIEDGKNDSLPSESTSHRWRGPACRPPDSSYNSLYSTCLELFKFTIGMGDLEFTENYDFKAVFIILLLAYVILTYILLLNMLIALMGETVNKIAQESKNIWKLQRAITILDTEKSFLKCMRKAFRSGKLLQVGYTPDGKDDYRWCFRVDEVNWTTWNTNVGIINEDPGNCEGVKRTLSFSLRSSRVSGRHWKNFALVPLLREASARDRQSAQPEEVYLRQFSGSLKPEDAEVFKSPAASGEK
TRPA1, sequence (O75762 whole entry, species assumed): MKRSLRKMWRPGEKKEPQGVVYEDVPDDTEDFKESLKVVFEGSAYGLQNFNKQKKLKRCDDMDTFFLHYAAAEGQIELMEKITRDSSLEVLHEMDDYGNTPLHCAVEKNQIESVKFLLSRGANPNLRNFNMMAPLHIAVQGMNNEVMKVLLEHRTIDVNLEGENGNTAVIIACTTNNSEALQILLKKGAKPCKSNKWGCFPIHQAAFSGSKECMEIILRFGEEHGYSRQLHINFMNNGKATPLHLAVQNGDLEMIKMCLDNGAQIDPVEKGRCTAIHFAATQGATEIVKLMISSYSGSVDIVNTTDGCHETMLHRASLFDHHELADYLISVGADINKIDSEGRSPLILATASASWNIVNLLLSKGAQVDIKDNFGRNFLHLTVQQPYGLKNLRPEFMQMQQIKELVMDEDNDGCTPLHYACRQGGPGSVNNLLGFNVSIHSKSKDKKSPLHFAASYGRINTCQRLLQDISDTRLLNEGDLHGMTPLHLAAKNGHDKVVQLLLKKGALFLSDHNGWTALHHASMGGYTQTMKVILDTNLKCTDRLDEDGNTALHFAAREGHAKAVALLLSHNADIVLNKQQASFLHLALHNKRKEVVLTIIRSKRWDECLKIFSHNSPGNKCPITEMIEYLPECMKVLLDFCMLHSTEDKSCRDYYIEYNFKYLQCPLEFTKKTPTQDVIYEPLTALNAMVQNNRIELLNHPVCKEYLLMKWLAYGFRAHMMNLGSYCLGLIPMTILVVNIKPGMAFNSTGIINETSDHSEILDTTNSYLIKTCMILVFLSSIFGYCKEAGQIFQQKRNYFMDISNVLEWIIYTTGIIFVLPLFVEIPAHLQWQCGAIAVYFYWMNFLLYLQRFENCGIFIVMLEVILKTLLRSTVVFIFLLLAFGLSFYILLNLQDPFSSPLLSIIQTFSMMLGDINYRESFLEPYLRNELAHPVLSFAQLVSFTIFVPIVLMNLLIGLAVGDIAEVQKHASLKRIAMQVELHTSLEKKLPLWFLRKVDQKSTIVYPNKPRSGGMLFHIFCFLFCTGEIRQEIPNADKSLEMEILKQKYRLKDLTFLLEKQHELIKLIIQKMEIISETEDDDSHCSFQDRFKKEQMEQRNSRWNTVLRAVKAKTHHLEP
T2 sequence (Q7Z2W7 whole entry I746A): as the sequence (Q7Z2W7 whole entry) above, with I746A counted along it
T3 sequence (Q7Z2W7 whole entry N799A): as the sequence (Q7Z2W7 whole entry) above, with N799A counted along it

Regarding `Clc1c(OCCNCc2ccco2)ccc2ccccc12` [Compound 1], on TRPM8 [1] (HTS campaign activity determination, Fig. 4), the pIC50 turned out to be 7.15. The IC50 is 41.7 nM on TRPM8 [1] (agonist Cooling agent 10, read-out: pIC50 with Cooling agent 10 (converted)); 58.9 nM at TRPM8 [1] (agonist icilin, read-out: pIC50 with icilin (converted)); 20 nM on TRPM8 I746A; 10 nM at TRPM8 N799A. In addition, the “Activity on TRPA1” value on TRPA1 is “completely inactive; also recorded: didn’t have any effect”. Further, the “Activity on TRPV1” value at TRPV1 is “completely inactive; also recorded: didn’t have any effect”. At TRPM8 [2], the “Binding mechanism by Schild regression” value is on record as “orthosteric binding mechanism”.
